Laboratory results from patent US12415799B2, “Indazole-fused cyclic compound” (Zhejiang Yangli Pharmaceutical Technology Co., Ltd., priority 2020, dated 2025).
Where two headings read alike, the source gives them in different places.

Columns and labels:
MCF-7 cells = assay: MCF-7 cell proliferation inhibition experiment; assay type: cell-based; details: 6 days incubation, CellTiter-Glo, read-out: Anti-cell proliferation activity of MCF-7
Procedure: (1) MCF-7 Cell Proliferation Inhibition Experiment:
EMEM culture medium was purchased from Wisent, and fetal bovine serum was purchased from Biosera, Promega CellTiter-Glo reagent. MCF-7 cell line was purchased from Cell Bank of Type Culture Collection of Chinese Academy of Sciences. Nivo5 multi-label analyzer (PerkinElmer).
MCF-7 cells were seeded in a white 384-well plate with 600 cells per well in every […] of the cell suspension. The cell plate was placed in a carbon dioxide incubator and cultured overnight.
The test compound was diluted to the 10th concentration with a multi-channel pipette, and the compound concentration was 1 mM, 400 μM, and 80 μM, and then diluted to the 10th concentration of 1 nM in turn, and a double-duplicate experiment was set-up. 47.5 μL of culture medium was added to the middle plate, then 2.5 μL of gradient dilution compound per well was transferred to the middle plate according to the corresponding position, and 5 μL of the mixture per well was mixed evenly and transferred to the cell plate. The cell plate was placed in a carbon dioxide incubator and cultured for 6 days.
After 6 days of co-incubation of the compound, the culture medium was removed by centrifugation, and 25 μL of Promega CellTiter-Glo reagent was added to each well of the cell plate, and incubated at room temperature for 10 minutes to stabilize the luminescence signal. PerkinElmer Nivo multi-marker analyzer reading was used. In the experiment, the reading of 2 μM positive reference compound H3B-6545(US20160347717A1) was used as a positive control to participate in data calculation.
The equation % Inhibition=((RFUCmpd−AVER(RFUNeg.ctrl))/((AVER(RFUPos.Ctrl)−AVER(RFUNeg.ctrl))×100% was used to convert the original data into inhibition rate, and the compound curve was fitted by log(inhibitor)vs. response-Variable slope of Graphpad Prism 5. The IC50 value was calculated by the software through the formula Y=Bottom+(Top−Bottom)/(1+10^((Log IC50−X)*HillSlope)).

CYP3A4 = CYP3A4 (Homo sapiens (Human), UniProt P08684); assay: Cytochrome P450 isoenzyme inhibition, human liver microsomes; assay type: in vitro ADME
Procedure: Experimental purposes: To test the inhibitory effect of test compound on the activity of human liver microsomal cytochrome P450 isoenzymes (CYP1A2 and CYP3A4) (Corning, Co., Ltd.).
Experimental operation: Firstly, the test compound (10 mM) was subjected to gradient dilution to prepare a working solution (100×final concentration), and the concentration of the working solution was: 5, 1.5, 0.5, 0.15, 0.05, 0.015 and 0.005 mM, respectively, and the working solution of each positive inhibitor of P450 isoenzyme (CYP1A2 and CYP3A4) and its specific substrate mixture (5 in 1) were prepared; and then the human liver microsomes frozen in the −80° C. refrigerator were thawed on ice, and all the human liver microsomes were dissolved, diluted with PB, and a certain concentration of working solution (0.253 mg/mL) was prepared; 20 μL of substrate mixture was added to the reaction plate (20 μL of PB was added to the blank well), while 158 μL of human liver microsomal working solution was added to the reaction plate, and the reaction plate was placed on ice for later use; at this time, 2 μL of various concentrations of the test compound (N=1) and specific inhibitor (N=2) were added to the corresponding well, and the corresponding organic solvent was added to the non-inhibitor (test compound or positive inhibitor) group as a control group sample (a ratio of DMSO:MeOH in the test compound control sample was 1:1, a ratio of DMSO:MeOH in the positive control sample was 1:9); after pre-incubation in a water bath at 37° C. for 10 min, 20 μL of coenzyme factor (NADPH) solution was added to the reaction plate, and incubated in a water bath at 37° C. for 10 min; and 400 μL of cold acetonitrile solution (internal standard was 200 ng/mL tolbutamide and labetalol) was added to terminate the reaction; the reaction plate was placed on a shaker and shaked for 10 minutes; and then centrifuged at 4,000 rpm for 20 minutes; 200 μL of the supernatant was taken and added to 100 μL of water for sample dilution; finally the plate was sealed, shaked and shaked well, for LC/MS/MS detection.

[1] = In vivo pharmacokinetic study in mice; set-up: species or system female Balb/c mice
From the text: Experimental purposes: To test the drug concentration in plasma of mice at different times after intravenous and intragastric administration of the test compound by LC/MS/MS using female Balb/c mice as the experimental animals. To study the pharmacokinetics of the test compound in mice in vivo and evaluate their pharmacokinetic characteristics.
Experimental animals: 4 healthy female Balb/c mice were divided into 2 groups according to the principle of similar body weight, with 2 mice in each group in IV group and 2 mice in each group in PO group. Animals were purchased from Shanghai Lingchang Biotechnology Co., Ltd.
Appropriate number of samples were weighed and prepared into 1 mg/mL solution respectively, and the mixture was stirred and ultrasonicated to reach a clear state, and the solvent was 15% HP-β-CD.
Administration: After fasting overnight, IV group was administered intravenously, and the dosage of the test compound was 5 mg/kg; PO group was administered intragastrically, and the dosage of the test compound was 10 mg/kg.
After the female Balb/c mice in the intravenous injection group were given the test compound respectively, 30 μL of blood was collected from the saphenous vein at 0.0833, 0.25, 0.5, 1, 2, 4, 8, and 24 hours, and placed in a commercialized anticoagulant tube added with EDTA-K2 in advance. After intragastric administration of the test compound, 30 μL of blood was collected from the saphenous vein at 0.25, 0.5, 1, 2, 4, 8, 12 and 24 hours, respectively, and placed in a commercialized anticoagulant tube added with EDTA-K2 in advance. After centrifugation (3,200 g, 4° C., 10 minutes), the plasma was collected, transferred to a pre-cooled centrifuge tube, quickly frozen in dry ice, and stored in a refrigerator at −60° C. or lower, until LC-MS/MS analysis. Animals were allowed to eat 4 hours after administration. LC/MS/MS method was used to determine the content of the test compound in the plasma of mice after intravenous and intragastric administration. The linear range of the method was 2.00 to 2000 nM.

[2] = female, Balb/c, mouse, plasma, iv, i.v. 5 mg/kg
[3] = female, Balb/c, mouse, plasma, po, p.o. 10 mg/kg

Sequence of CYP3A4 (P08684 whole entry): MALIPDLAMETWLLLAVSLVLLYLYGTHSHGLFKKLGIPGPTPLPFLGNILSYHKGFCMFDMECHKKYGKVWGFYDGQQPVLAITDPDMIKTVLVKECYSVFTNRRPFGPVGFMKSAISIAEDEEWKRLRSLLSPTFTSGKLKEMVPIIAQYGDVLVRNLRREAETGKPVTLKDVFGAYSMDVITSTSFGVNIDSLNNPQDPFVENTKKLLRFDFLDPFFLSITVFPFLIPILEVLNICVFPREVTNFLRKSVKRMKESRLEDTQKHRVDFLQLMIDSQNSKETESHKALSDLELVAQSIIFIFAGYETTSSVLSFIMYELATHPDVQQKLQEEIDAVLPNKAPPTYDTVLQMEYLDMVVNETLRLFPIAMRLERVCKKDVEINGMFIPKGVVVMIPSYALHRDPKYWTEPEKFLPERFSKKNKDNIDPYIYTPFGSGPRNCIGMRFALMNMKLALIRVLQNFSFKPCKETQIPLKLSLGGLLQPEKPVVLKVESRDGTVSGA

Compound | IC50 (MCF-7 cells; Homo sapiens, MCF7, 144 h) | IC50 (CYP3A4) | AUC(0-t) [1, 2] | clearance [1, 2] | half-life [1, 2] | Vd ([1]; female, Balb/c, mouse, plasma, iv, i.v. 5 mg/kg, read-out: Vdss) | bioavailability ([1]; female, Balb/c, mouse, plasma, oral, p.o. 10 mg/kg vs i.v. 5 mg/kg) | AUC(0-t) [1, 3] | Cmax [1, 3] | half-life [1, 3] | IC50 (MCF-7 cells) | AUC0-last ([1]; i.v. 5 mg/kg) | Cl ([1]; i.v. 5 mg/kg) | T1/2 ([1]; i.v. 5 mg/kg) | Vdss ([1]; i.v. 5 mg/kg) | AUC0-last ([1]; p.o. 10 mg/kg) | Cmax ([1]; p.o. 10 mg/kg) | T1/2 ([1]; p.o. 10 mg/kg) | F % ([1]; p.o. 10 mg/kg vs i.v. 5 mg/kg)
FCCCN1CC(Nc2ccc(C3=C(CC(F)(F)F)CCCc4c3ccc3[nH]nc(F)c43)nc2)C1 [Compound 2] | 0.00042 µM | 47.2 µM | 8.47 µM·h | 18.3 mL/min/kg | 6.85 h | 10.6 L/kg | 71.8% | 11.7 µM·h | 937 nM | 7.67 h | – | – | – | – | – | – | – | – | –
FCCCN1CC[C@H](Nc2cnc(C3=C(CC(F)(F)F)CCCc4c3ccc3[nH]nc(F)c43)cn2)C1 [Compound 11A] | – | 25.7 µM | – | – | – | – | – | – | – | – | 0.00017 µM | 5.27 µM·h | 30.2 mL/min/kg | 5.16 h | 11.1 L/kg | 5.856 µM·h | 779 nM | 4.72 h | 55.4%
